# Data: patent US9957484B2, “Methods for promoting cell reprogramming” (Sanford-Burnham Medical Research Institute, priority 2011, dated 2018)
# Legend:
# Format in all cases: cell-based, mouse
# [1] = system: MEFs during reprogramming; experiment: Alkaline phosphatase (AP)+ colony formation during reprogramming; conditions: molecule applied during reprogramming
# GSK3β = experiment: Western blotting of phospho- and total GSK3β; conditions: 4F-infected MEFs, 1 μM each of Akt X and B6
# Description: 4F-infected MEFs were treated with different doses of B6 inhibitor starting at day 3 post-infection for 48 hrs before being harvested for western blotting analysis.
# The experiment was the same as FIG. 5C. Actin served as the loading control.
# 4F-infected MEFs were treated with 1 μM each of Akt inhibitor (Akt X) and B6.
# Membranes were blocked with 5% milk in TBST for at least 1 hr at room temp or overnight at 4° C.
# [2] = system: 4F-transduced Oct4-GFP MEFs; experiment: Kinase inhibitor treatment of 4F-transduced Oct4-GFP MEFs, Oct4-GFP+ colony count (reprogramming efficiency); conditions: for reprogramming, Oct4-GFP+ colonies: secondary screen, 12-well plates, 2 μM, drug from day 3, colonies at day 13, vs DMSO; for reprogramming, Oct4-GFP+ colonies, dose/response: 0.5 μM, drug from day 3, colonies at day 13; for iPSC generation in non-permissive conditions: 4F expression too low to reprogram vehicle-treated MEFs, GFP+ colonies at day 12-13; for iPSC generation when p53 is silenced by shRNA: 4F plus p53 shRNA, inhibitor from day 3, GFP+ colonies at day 12
# Description: MEFs were cultured in DMEM (Invitrogen, 11995-065) with 10% FBS (Invitrogen) plus glutamine and NEAA. Only MEFs at passage of 0 to 4 were used for reprogramming. pMX-Oct4, Sox2, Klf4 and cMyc were purchased from Addgene. […] Viruses were harvested and combined 2 days later. For reprogramming, MEFs were seeded in 12-well plates and transduced with 4F virus the next day with 4 ug/ml Polybrene. One day later, the medium was changed to fresh MEF medium, and 3 days later it was changed to mES culture medium supplemented with LIF (Millipore, ESG1107). GFP+ colonies were picked at day 14 post-transduction, and expanded clones were cultured in DMEM with 15% FBS (Hyclone) plus LIF, thioglycerol, glutamine and NEAA. Irradiated CF1 MEFs served as feeder layers to culture mES cells and derived iPS clones.
# All compounds are well-characterized protein kinase inhibitors. Compounds were diluted to 2 mM in 96-well plates. 4F-transduced cells were seeded into gelatin coated plates (4000 cells/well). Inhibitors were added every other day until day 13. Cells were then fixed with 4% paraformaldehyde for 20 min at room temperature and number of Oct4-GFP+ colonies was directly counted under a microscope. Cells were then stained with Vector red alkaline phosphatase substrate kit I™ (Vector laboratories, SK5100).
# To define signaling mechanisms underlying reprogramming, a double-blind screen of 244 well-characterized cell-permeable protein kinase inhibitors was undertook to identify kinases that enhance or inhibit the process. Mouse embryonic fibroblasts from a transgenic line in which GFP expression is driven by the endogenous Oct4 promoter were chosen as the starting material for a reporter cell line of somatic cell reprogramming. Fully reprogrammed cells switch on endogenous Oct4 expression, making resultant iPS colonies GFP-positive and enabling quantification of reprogramming efficiency. To minimize well-to-well variation, MEFs were first transduced with 4F factors in bulk (FIG. 9A) and then reseeded at 3000 cells/well into gelatin-coated 96-well plates before inhibitor treatment. Starting at day 3 post-transduction, inhibitors were added at a final concentration of 2 μM and media were refreshed every other day with mES culture medium plus inhibitor. At day 13 post-transduction, plates were fixed in 4% paraformaldehyde and GFP-positive colonies were directly quantified microscopically.
# Two columns of wells from each plate (columns 1 and 12) were treated with DMSO (vehicle) only and served as controls.
# 4F-infected MEFs = experiment: Cell proliferation assay (Celltiter 96 aqueous), 4F-infected MEFs; conditions: 4F-transduced MEFs, 0.5 μM
# Description: (§1) MEFs were treated with drugs at 2 μM and proliferation was assayed by using the Celltiter 96™ aqueous method (Promega). Y-axis represents the absorbance at 490 nm to detect formazan, which is converted from MTS tetrazolium by living cells. A higher reading indicates increased cell number. […] Oct4-GFP+ colonies were quantified at day 13.
# (§2) FIG. 16A is a graph plotting relative cell viability. 4F-infected MEFs were seeded in 96-well plates and 0.5 μM of three inhibitors was added at day 3 after transduction (Day 0 in dataset). Proliferation of cells was analyzed every other day using the Celltiter 96™ aqueous method (Promega). FIG. 16B is a graph plotting relative cell viability. […] The experimental procedure is the same as in FIG. 16A.
# (§3) Cell proliferation assay: 3000 MEFs were seeded in each well in 96-well plates and transduced with 4F virus for three days. Cells were then treated with inhibitors at 0.5 μM and harvested every other day. Cells were incubated with mES medium containing Celltiter 96 Aqueous™ one solution (Promega, G3580) for 1 hr in tissue culture incubator. Absorbance at 490 nm was then measured for each well using a plate reader, and data was used to generate relative proliferation curves using the signal from day 3 post-transduction as a reference.
# uninfected MEFs = experiment: Cell proliferation assay (Celltiter 96 aqueous), uninfected MEFs; conditions: 0.5 μM
# Description: as §1, §2, §3
# [3] = system: OSKM-transduced Oct4-EGFP MEFs; experiment: OSKM-induced reprogramming with small molecules, GFP+ colonies; conditions: treated four days after OSKM transduction for at least 10 days, vs DMSO
# Description: All 17 molecules are tested by examining alkaline phosphatase (AP)+ colony formation during reprogramming while these molecules were applied. […] To evaluate their effect on induction of mature GFP+ iPS cells, OSKM-transduced Oct4-EGFP MEFs are treated four days after transduction with each of these factors separately.
# Oct4-EGFP MEFs are transduced with OSKM and four days later treated with individual small molecules for at least 10 days. GFP+ colonies are identified. Error bars represent standard deviations of three independent experiments. *p value<0.05; **p value<0.005.
compound,measurement,setting,value
4-hydroxytamoxifen,effect on AP+ colony formation,[1],not showing adverse effect on AP+ colony formation
CCN(CC)CCCCN1c2ccccc2Oc2ccc(Cl)cc21 [Akt X],GSK3β phosphorylation,GSK3β,diminished
same,reprogramming,"[2]; 1 μM, triplicate wells",compromises reprogramming
Cc1cccc(-c2[nH]c(C(C)(C)C)nc2-c2ccc3c(c2)OCO3)n1 [BIM-0086716],"reprogramming, Oct4-GFP+ colonies",[2],consistently and significantly enhanced reprogramming
O=[N+]([O-])c1ccc(CNc2nc(NCc3cccc(C(F)(F)F)c3)nc3nc[nH]c23)cc1 [BIM-0207164],proliferation,4F-infected MEFs,did not significantly promote proliferation
same,"reprogramming, Oct4-GFP+ colonies, dose/response",[2],potent enhancers
same,iPSC generation in non-permissive conditions,[2],enhanced iPSC generation even in non-permissive conditions
same,iPSC generation when p53 is silenced by shRNA,[2],equivalent in inhibitor-treated and -untreated conditions
same,"reprogramming, Oct4-GFP+ colonies",[2],consistently and significantly enhanced reprogramming
same,proliferation,uninfected MEFs,did not significantly promote proliferation
O=S(=O)(c1c(O)c(Cl)cc(Cl)c1Cl)c1c(O)c(Cl)cc(Cl)c1Cl [BIM-0207174],proliferation,4F-infected MEFs,did not significantly promote proliferation
same,"reprogramming, Oct4-GFP+ colonies, dose/response",[2],potent enhancers
same,iPSC generation in non-permissive conditions,[2],enhanced iPSC generation even in non-permissive conditions
same,iPSC generation when p53 is silenced by shRNA,[2],equivalent in inhibitor-treated and -untreated conditions
same,"reprogramming, Oct4-GFP+ colonies",[2],consistently and significantly enhanced reprogramming
same,proliferation,uninfected MEFs,did not significantly promote proliferation
"COC(=O)[C@H]1[C@H]2C[C@H]3c4[nH]c5ccccc5c4CCN3C[C@@H]2CC[C@@H]1O.Cl [Corynanthine, Corynanthine hydrochloride]",effect on AP+ colony formation,[1],not showing adverse effect on AP+ colony formation
O=C(NCCN1CCOCC1)c1ccc(Cl)cc1 [Moclobemide],effect on AP+ colony formation,[1],not showing adverse effect on AP+ colony formation
COc1ccc2cc(CCC(C)=O)ccc2c1 [Nabumetone],effect on AP+ colony formation,[1],not showing adverse effect on AP+ colony formation
same,increase in number of reprogrammed colonies,[3],at least 2.8 fold
